Reference: ChEMBL document CHEMBL5154845, “Dual-acting antitumor agents targeting the A2A adenosine receptor and histone deacetylases: Design and synthesis of 4-(furan-2-yl)-1H-pyrazolo[3,4-d]pyrimidin-6-amine derivatives” (Eur J Med Chem, 2022)
The source made the active and inactive calls. No cut-off for these calls is given here.

What was measured:
MC38 [1] = test: Inhibition of HDAC in mouse MC38 cells assessed as increase in H4 acetylation at 0.1 to 5 uM measured by western blot analysis; assay type: cell-based; details: dose 0.1-5 µM
Histone deacetylase 2 = Histone deacetylase 2 (Homo sapiens, UniProt Q92769); test: Inhibition of HDAC2 (unknown origin) using trypsin and LGK(Ac)-AMC as substrates incubated for 1 hr and measured by fluorescence assay
Chain of Histone deacetylase 2 (Q92769 whole entry): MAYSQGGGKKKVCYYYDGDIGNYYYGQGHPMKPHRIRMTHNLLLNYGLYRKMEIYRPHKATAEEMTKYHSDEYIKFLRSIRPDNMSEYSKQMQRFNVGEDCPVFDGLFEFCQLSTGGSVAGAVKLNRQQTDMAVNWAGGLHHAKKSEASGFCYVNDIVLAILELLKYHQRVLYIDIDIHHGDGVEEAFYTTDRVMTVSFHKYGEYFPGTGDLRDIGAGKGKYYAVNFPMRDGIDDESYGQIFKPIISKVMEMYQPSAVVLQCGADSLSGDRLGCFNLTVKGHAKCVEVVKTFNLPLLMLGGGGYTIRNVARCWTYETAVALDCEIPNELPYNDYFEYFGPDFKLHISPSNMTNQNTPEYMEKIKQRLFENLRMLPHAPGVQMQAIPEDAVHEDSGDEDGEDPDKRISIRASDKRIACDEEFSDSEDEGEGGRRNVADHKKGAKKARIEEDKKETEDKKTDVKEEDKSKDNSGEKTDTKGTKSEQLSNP

[2] = Cmax in male ICR mouse at 20 mg/kg, po measured up to 24 hrs by LC-MS/MS analysis; assay type: ADME, organism-based; set-up: time < 24 hrs, dose 20 mg/kg, route po; details: in vivo
[3] = Cmax in male ICR mouse at 20 mg/kg, ip measured up to 24 hrs by LC-MS/MS analysis; assay type: ADME, organism-based; set-up: time < 24 hrs, dose 20 mg/kg, route ip; details: in vivo
MC-38 [4] = test: Antitumor activity against mouse MC38 cells xenografted in C57 mouse assessed as tumor growth inhibition at 30 mg/kg, ip administered twice a day; assay type: functional; details: read-out: TGI
MC-38 [5] = test: Antitumor activity against mouse MC38 cells xenografted in C57 mouse assessed as tumor growth inhibition at 90 mg/kg, po administered twice a day; assay type: functional; details: read-out: TGI
[6] = Elimination rate constant in male ICR mouse at 5 mg/kg, iv measured up to 24 hrs by LC-MS/MS analysis; assay type: ADME, organism-based; details: in vivo
[7] = Half-life in male ICR mouse at 20 mg/kg, ip measured up to 24 hrs by LC-MS/MS analysis; assay type: ADME, organism-based; details: in vivo
[8] = Half-life in male ICR mouse at 5 mg/kg, iv measured up to 24 hrs by LC-MS/MS analysis; assay type: ADME, organism-based; details: in vivo
[9] = Volume of distribution at steady state in male ICR mouse at 5 mg/kg, iv measured up to 24 hrs by LC-MS/MS analysis; assay type: ADME, organism-based; details: in vivo
Adenosine receptor A2a = Adenosine receptor A2a (Homo sapiens, UniProt P29274); test: Displacement of [3H][…] from human A2AAR incubated for 60 mins by scintillation counter analysis
Chain of Adenosine receptor A2a (P29274 whole entry): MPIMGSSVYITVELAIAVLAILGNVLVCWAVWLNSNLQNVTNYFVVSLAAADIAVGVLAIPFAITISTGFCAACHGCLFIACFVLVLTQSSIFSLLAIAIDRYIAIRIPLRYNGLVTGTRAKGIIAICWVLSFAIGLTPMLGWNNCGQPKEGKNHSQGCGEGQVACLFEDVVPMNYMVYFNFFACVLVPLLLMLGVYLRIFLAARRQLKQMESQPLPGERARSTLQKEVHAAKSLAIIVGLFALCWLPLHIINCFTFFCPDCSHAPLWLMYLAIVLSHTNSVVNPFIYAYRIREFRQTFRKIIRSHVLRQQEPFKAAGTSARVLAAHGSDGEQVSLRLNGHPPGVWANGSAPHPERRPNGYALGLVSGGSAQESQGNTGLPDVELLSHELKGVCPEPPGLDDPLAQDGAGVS

MC38 [10] = test: Inhibition of HDAC in mouse MC38 cells assessed as increase in H3 acetylation at 0.1 to 5 uM measured by western blot analysis; assay type: cell-based; details: dose 0.1-5 µM
Histone deacetylase 3 = Histone deacetylase 3 (Homo sapiens, UniProt O15379); test: Inhibition of HDAC3 (unknown origin) using trypsin and LGK(Ac)-AMC as substrates incubated for 1 hr and measured by fluorescence assay
Chain of Histone deacetylase 3 (O15379 whole entry): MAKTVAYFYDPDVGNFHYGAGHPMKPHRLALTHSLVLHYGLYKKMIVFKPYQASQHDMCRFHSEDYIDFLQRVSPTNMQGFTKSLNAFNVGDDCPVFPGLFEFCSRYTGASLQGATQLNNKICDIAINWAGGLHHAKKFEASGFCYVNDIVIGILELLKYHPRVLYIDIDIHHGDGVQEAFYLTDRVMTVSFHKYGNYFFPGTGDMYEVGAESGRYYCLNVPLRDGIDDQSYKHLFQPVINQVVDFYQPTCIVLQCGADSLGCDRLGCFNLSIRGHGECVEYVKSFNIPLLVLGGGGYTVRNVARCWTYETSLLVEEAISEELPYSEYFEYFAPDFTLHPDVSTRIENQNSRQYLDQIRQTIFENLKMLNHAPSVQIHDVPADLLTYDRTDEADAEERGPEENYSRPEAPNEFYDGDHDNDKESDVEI

MC-38 [11] = test: Antitumor activity against mouse MC38 cells xenografted in C57 mouse assessed as tumor growth inhibition at 60 mg/kg, ip administered twice a day; assay type: functional; details: read-out: TGI
[12] = Half-life in male ICR mouse at 20 mg/kg, po measured up to 24 hrs by LC-MS/MS analysis; assay type: ADME, organism-based; details: in vivo
[13] = Tmax in male ICR mouse at 20 mg/kg, ip measured up to 24 hrs by LC-MS/MS analysis; assay type: ADME, organism-based; details: in vivo
Histone deacetylase 8 = target: T1, Histone deacetylase 8 (Homo sapiens, UniProt Q9BY41); test: Inhibition of HDAC8 (unknown origin) using trypsin and LGK(Ac)-AMC as substrates incubated for 1 hr and measured by fluorescence assay
T1 sequence (Q9BY41 whole entry): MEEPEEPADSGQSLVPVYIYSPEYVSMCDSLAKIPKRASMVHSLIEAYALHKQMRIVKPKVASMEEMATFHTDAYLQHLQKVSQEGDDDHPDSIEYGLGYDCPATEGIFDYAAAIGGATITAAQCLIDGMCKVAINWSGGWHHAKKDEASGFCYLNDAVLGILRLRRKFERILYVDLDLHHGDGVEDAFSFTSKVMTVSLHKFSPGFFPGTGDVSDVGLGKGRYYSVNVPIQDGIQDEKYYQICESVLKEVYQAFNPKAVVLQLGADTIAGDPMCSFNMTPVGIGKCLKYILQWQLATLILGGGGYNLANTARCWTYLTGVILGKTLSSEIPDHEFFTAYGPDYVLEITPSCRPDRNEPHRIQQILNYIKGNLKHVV

[14] = Elimination rate constant in male ICR mouse at 20 mg/kg, po measured up to 24 hrs by LC-MS/MS analysis; assay type: ADME, organism-based; details: in vivo
MC-38 [15] = test: Antiproliferative activity against mouse MC38 cells after 72 hrs by CCK-8 assay; assay type: functional
[16] = AUC (0 to t) in male ICR mouse at 20 mg/kg, po measured up to 24 hrs by LC-MS/MS analysis; assay type: ADME, organism-based; set-up: time < 24 hrs, dose 20 mg/kg, route po; details: in vivo
Histone deacetylase 1 = Histone deacetylase 1 (Homo sapiens, UniProt Q13547); test: Inhibition of HDAC1 (unknown origin) using trypsin and LGK(Ac)-AMC as substrates incubated for 1 hr and measured by fluorescence assay
Chain of Histone deacetylase 1 (Q13547 whole entry): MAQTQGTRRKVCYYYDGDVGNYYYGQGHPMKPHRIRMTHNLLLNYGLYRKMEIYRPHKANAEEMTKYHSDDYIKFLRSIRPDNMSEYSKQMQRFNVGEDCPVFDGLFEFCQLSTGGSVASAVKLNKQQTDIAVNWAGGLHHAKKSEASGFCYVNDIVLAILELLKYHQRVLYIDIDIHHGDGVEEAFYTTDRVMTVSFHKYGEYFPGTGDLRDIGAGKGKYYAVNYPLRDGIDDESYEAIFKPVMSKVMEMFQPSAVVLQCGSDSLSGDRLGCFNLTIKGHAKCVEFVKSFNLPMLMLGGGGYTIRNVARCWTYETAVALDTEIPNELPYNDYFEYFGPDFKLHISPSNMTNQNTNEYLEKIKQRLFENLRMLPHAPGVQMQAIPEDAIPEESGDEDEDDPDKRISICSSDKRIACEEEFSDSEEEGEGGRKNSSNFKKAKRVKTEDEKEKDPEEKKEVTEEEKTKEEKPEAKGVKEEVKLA

[17] = Oral bioavailability in male ICR mouse at 20 mg/kg measured up to 24 hrs by LC-MS/MS analysis; assay type: ADME, organism-based; details: in vivo
[18] = AUC (0 to t) in male ICR mouse at 20 mg/kg, ip measured up to 24 hrs by LC-MS/MS analysis; assay type: ADME, organism-based; set-up: dose 20 mg/kg, time < 24 hrs, route ip; details: in vivo
[19] = Initial plasma concentration in male ICR mouse at 5 mg/kg, iv measured up to 24 hrs by LC-MS/MS analysis; assay type: ADME, organism-based
[20] = Elimination rate constant in male ICR mouse at 20 mg/kg, ip measured up to 24 hrs by LC-MS/MS analysis; assay type: ADME, organism-based; details: in vivo

Nc1nc(-c2ccco2)c2cnn(CCc3ccc(C(=O)Nc4ccccc4N)cc3)c2n1
inhibition (MC38 [1]): Active | IC50 (Histone deacetylase 2): 240 nM | Cmax [2]: 3420 ng/mL | Cmax [3]: 8410 ng/mL | inhibition in vivo at 30 mg/kg (MC-38 [4]): 68% | inhibition in vivo at 90 mg/kg (MC-38 [5]): 44% | k el at 24 h [6]: 0.000506 s⁻¹ | half-life [7]: 49.8 min | half-life [8]: 23.3 min | Vdss [9]: 0.92 L/kg | Ki (Adenosine receptor A2a): 163 nM | inhibition (MC38 [10]): Active | IC50 (Histone deacetylase 3): 444 nM | inhibition in vivo at 60 mg/kg (MC-38 [11]): 85% | half-life [12]: 134 min | Tmax [13]: 15 min | IC50 (Histone deacetylase 8): > 10000 nM | k el at 24 h [14]: 0.000108 s⁻¹ | GI50 (MC-38 [15]): 290 nM | AUC(0-t) at 24 h [16]: 3600 ng·h/mL | IC50 (Histone deacetylase 1): 145 nM | bioavailability [17]: 43% | AUC(0-t) at 24 h [18]: 10000 ng·h/mL | C0 at 24 h [19]: 6500 ng/mL | k el at 24 h [20]: 0.000234 s⁻¹
